Reference: patent US20230364204A1, “Bioactive Peptides, Compositions, Production Process, and Use of Bioactive Peptides as Anti-Tumoral Agents” (priority 2022, published 2023)

How the values were obtained:
MDAMB231 cells [1] = assay: MTT with or without autophagy inhibitor 3-methyladenine (3-MA); format: cell-based
Experimental: The 3-Methyladenine (3-MA) is an autophagy inhibitor (blocks the activation of this mechanism of action). For molecules that trigger autophagy as a cell death mechanism when this pathway is blocked the molecule loses action.
The MTT method was carried out as previously described herein, comparing the effect of 3-NAntC with or without 3-Methyladenine (3-MA).
(§1) In order to determine the effects of the peptide in LDH release, autophagy induction and apoptosis/necrosis profile of MDAMB231 cell line, the Analysis of Variance (ANOVA) with Dunnet and Bonferroni post-hoc tests were applied to the significance of 5% in GraphPad Prism software version 6.0.

[2] = system: MDA-MB-231 cells implanted in zebrafish larvae; assay: Zebrafish xenograft model of MDAMB231 (primary tumor and metastasis); format: in vivo
Experimental: Transgenic Tg(fli1:EGFP)y1 zebrafish embryos were raised at 28° C. for 48 hours in E3 embryo medium 0.2 mM 1-Phenyl-2-Thiourea aka PTU. […] MDA-MB-231 cells were labeled with Dil red fluorescent dye. Approximately 700 Dil Labeled cancer cells were subcutaneously co-implanted into the perivitelline space of 2 days old larvae ± 3-NantC peptide at […]. Larvae in which tumor cells had been inadvertently injected into circulation or larvae with erroneous implantation of the tumor in the yolk rather than the perivitelline space were excluded from the study. Selected tumor bearing embryos were sorted into experimental groups (20 embryos/group), and pictures of primary tumors were taken right after injection. Doxorubicin treatment was added to embryo water at 2.5 µg/mL according to the study plan. Tumor-bearing embryos were incubated in E3/PTU medium for 72 h at 36° C. After incubation, pictures of the primary tumors and the CVP were taken using a red fluorescent filter. Larvae that died or were lost by other means during the study were excluded from the final analysis.
Images obtained right after implantation (day 0) and after 72 h incubation (day 3) were analyzed by using in-house developed software. Tumor growth regression was calculated and normalized to the negative control group. The number of metastasized cells was counted manually. One-way ANOVA was performed followed by two-tailed Student’s t-test. Definitive outliers were detected using the ROUT method with a Q=1%. Graphs and example images, and experimental data were obtained/analyzed by using GraphPad Prism v9.0.2.

[3] = system: Triple negative breast tumor cells (MDAMB231); assay: Observation of triple negative breast tumor cells after treatment (FIG. 3/4); format: cell-based; settings: MDAMB231, treated for 24 h
Experimental: FIG. 3 illustrates the untreated triple negative tumor cells, presented in large numbers.
FIG. 4 illustrates the tumor cells after being treated with the peptide 3-NantC (SEQ ID 1) for 24h. The arrows indicate the tumor cells, which are shown in smaller numbers and with vesicles when compared with the untreated tumor cells.

MDAMB231 cells [4] = assay: Lactate dehydrogenase (LDH) release; format: cell-based; settings: MDAMB231, 24, 48 and 72 h
Experimental: The lactate dehydrogenase (LDH) is a cytosolic enzyme present in most mammalian cells.
For LDH release protocol, after treatments were performed for the MTT protocol, 20 µL of the supernatant of each well was transferred to an EIA/RIA plate. Then, 20 µL/well of the Reaction Mixture from the CyQUANT™ LDH Cytotoxicity Assay kit and reaction was incubated at RT for 30 minutes in the dark. Then, 60 µL/well of the Stop Solution from the kit was added and plate was read in a spectrophotometer at both 490 nm and 650 nm.
The calculation of LDH release was performed as follows: • 1. The absorbance measured at 650 nm was subtracted from the absorbance measured at 490 nm. • 2. This formula was applied: […]
O.D.: optical density captured by spectrophotometer NOTE: The Basal O.D. is the one found in the blank wells (only reaction mixture and stop solution).
as §1

MDAMB231 cell line = assay: Apoptosis/necrosis flow cytometry (Annexin V-FITC / propidium iodide); format: cell-based
Excerpt: Annexin V is a potent marker for apoptosis since it binds to the phosphatidylserine of the cell membrane. This binding only occurs when the phosphatidylserine is externalized in the membrane, which is one of the first signals of apoptosis death. Meanwhile propidium iodide only enters the cells after a membrane rupture and can indicate a final step to cell death. The double labeling with these markers allows to distinguish apoptosis and necrosis death through the following characterization: • Annexin V^- / Pl^-: live cells • Annexin V^+ / Pl^-: cells in early apoptosis • Annexin V^+ / Pl^+: cell in late apoptosis • Annexin V^- / Pl^+: cells in necrosis
For Apoptosis/ Necrosis protocol, cells were plated 6-well sterile plates for cell culture with a cap at the density of 2.5 × 10^5 cells/well for treatments lasting 24 h or more, completing the volume with 1000 µL culture medium. The plates were incubated for 8-16 h in an incubator at 37° C. and 5% CO2. The next day, the treatments were prepared in culture medium, applying 2000 µL/well at the desired concentration, and the plate was placed in an incubator at 37° C. and 5% CO2 for the duration of treatment. After the treatment period, cells were collected in a conic 15 mL tube and washed with 200 µL of binding buffer (1×) from the FITC Annexin V Apoptosis Detection Kit I. Cells were resuspended in 100 µL/tube of binding buffer (1×) and 1 µL of Annexin V-FITC was added to each tube except the blank. Cells were then incubated for 20 min. in ice and in the dark. Then, 50 µL/tube of binding buffer was added and cells were labeled with 2 µL of Propidium Iodide (PI) at 100 µg/mL and read at the flow cytometer for size and fluorescent content (FITC and PI).
as §1

## CSCC[C@H](N)C(=O)N[C@@H](Cc1ccccc1)C(=O)N[C@@H](Cc1ccc(O)cc1)C(=O)N1CCC[C@H]1C(=O)N[C@@H](CC(=O)O)C(=O)N[C@@H](CO)C(=O)N[C@@H](CCCNC(=N)N)C(=O)N[C@@H](CS)C(=O)N[C@@H](CCCNC(=N)N)C(=O)NCC(=O)N1CCC[C@H]1C(=O)N[C@@H](CO)C(=O)N[C@@H](CCC(=O)O)C(=O)N[C@H](C(=O)O)[C@@H](C)O [3-NAntC, [H]-MFYPDSRCRGPSET-[OH]]
MDAMB231 cells [1]
  activity with and without the autophagy inhibitor 3-MA (MTT): remains the same
[2]; 75 and 125 mg/mL
  decrease of metastatic cells: about 60%
[2]; 72 h, 3-NantC co-implanted at 75, 100 or 125 mg/mL, Doxorubicin 2.5 µg/mL in embryo water
  decrease of tumor cells (primary tumor): 75%
[2]; very low concentrations (FIG. 17)
  decrease in metastatic cells: about 40%
[3]
  number of tumor cells compared to no treatment: lower numbers
  number of vesicles compared to no treatment: greater number of vesicles
MDAMB231 cells [4]
  LDH release: does not show any significant increase
MDAMB231 cell line; MDAMB231, 24 and 48 h, 0.8 µg/mL
  percentage of cells in necrosis: maintaining the percentage of cells in necrosis
MDAMB231 cell line; MDAMB231, 24 h, 0.8 µg/mL
  increase of apoptosis rate: about 20%
MDAMB231 cell line; MDAMB231, 48 h, 0.8 µg/mL
  increase of apoptosis rate: about 20%
MDAMB231 cell line; MDAMB231, 72 h, highest dosage
  increase of apoptosis rate: 28.73%
